In PMC9456463, “Intelligent Drug Delivery by Peptide-Based Dual-Function Micelles” (International Journal of Molecular Sciences, 2022):

Test system: 4T1 mouse breast cancer cell xenografted model
Assay: In vivo antitumor efficacy, 4T1 mouse breast cancer xenografted model
Details: BALB/c female mice, 4T1 tumor
Description: All animal experiments were performed complying with the guidelines for the care and use of laboratory animals of the Peking University Animal Study Committee’s requirements. Experimental procedures were carried out by a protocol approved for institutional animal care. A total of 24 BALB/c female mice (5–6 weeks) were used in this study. The PBS suspension containing 2.5 × 10^4 4T1 cells was injected subcutaneously into female BALB/c mice. […] The body weight and tumor volume of each mouse were measured at regular intervals to evaluate the antitumor effects and toxicity of different drugs. […] One mouse from each group was randomly selected, and its major organs and tumor tissues were collected, then Hematoxylin and Eosin (H&E) staining were utilized to evaluate the degree of apoptosis in mice.

**Q.** `COc1cccc2c1C(=O)c1c(O)c3c(c(O)c1C2=O)C[C@@](O)(C(=O)CO)C[C@@H]3O[C@H]1C[C@H](N)[C@H](O)[C@H](C)O1` [DOX, Doxorubicin] was tested. Which “body weight change during treatment” value (tail vein injection) did it give?
**A.** decreased significantly

**Q.** And the final tumor weight (tail vein injection on days 0, 4, 8, 12)?
**A.** 0.47 g

**Q.** And the “tumor volume increase after 14 days” value (tail vein injection on days 0, 4, 8, 12, group sacrificed on the 14th day)?
**A.** 11.03 fold

**Q.** What about the final tumor weight (tail vein injection on days 0, 4, 8, 12, listed as free DOX) of the same molecule?
**A.** 0.67 g
